Article PMC12388300, “The Chelating Abilities of Tertiary Amines with N-O-Donors Towards Cu(II) Ions and the Catalytic Properties of the Resulting Complexes” (Molecules, 2025)
Read-outs that look alike come from different tables or passages of the source. Marks after values point to notes of the source that are not given here. Where no end group is shown, it is not given here.

Experiments:
[1] = Potentiometric titration: protonation constants of the ligands; type: physicochemical; conditions: I = 0.1 M, 25 °C; for logβi, Lx^− + 2H^+ ⇌ [(HLx)H]^+ / logβi, Lx^− + 3H^+ ⇌ [(HLx)H2]^2+ / logβi, Lx^− + 4H^+ ⇌ [(HLx)H3]^3+ / logβi, Lx^− + H^+ ⇌ HLx: overall protonation constant, 5% v/v DMSO/H2O, HCl/KCl; for logKi, Lx^− + H^+ ⇌ HLx: stepwise protonation constant (phenolic group); for logKi, HLx + H^+ ⇌ [(HLx)H]^+ / logKi, [(HLx)H2]^2+ + H^+ ⇌ [(HLx)H3]^3+ / logKi, [(HLx)H]^+ + H^+ ⇌ [(HLx)H2]^2+: stepwise protonation constant
Protocol: Initially, potentiometric measurements were performed to investigate the binding abilities of the ligands in an aqueous environment at different pH levels and to construct the corresponding speciation curves (Figure 1). The analyses were performed in HCl/KCl mixtures, with KCl used to maintain a constant ionic strength of 0.1 mol·dm^−3. The first step of the potentiometric studies was the assessment of the acid-base properties of both ligands. The overall and stepwise protonation constants are collected in Table 1.
(§1) Potentiometric measurements were performed using a Metrohm pH-meter system equipped with a semi-micro combination electrode, at 25 °C. The system was calibrated based on hydrogen ion concentration using HCl. Ligands were prepared in a 5% (v/v) DMSO solution with water containing HCl/KCl with a constant ionic strength of I = 0.1 M to achieve a final concentration of 1 mM and 0.6 mM of HL1 and HL5, respectively. Titrations were conducted by incrementally adding 0.1 M KOH using a microsyringe at 25°C, spanning a pH interval from 2.5 to 11.5, under an argon atmosphere. The stability constants and complex stoichiometries were determined from the titration data using the SUPERQUAD and HYPERQUAD programs.

[2] = Potentiometric titration: stability constants and speciation of in situ-formed Cu(II) complexes; type: physicochemical; conditions: for logβi of [Cu(HLx)H]^3+ / logβi of [Cu(HLx)]^2+ / logβi of [Cu(Lx)(OH)2]^− / logβi of [Cu(Lx)(OH)] / logβi of [Cu(Lx)]^+: overall stability constant, in situ-formed complex, I = 0.1 M, 25 °C; for pH of maximum concentration of [Cu(HLx)H]^3+: speciation curves, ligand/copper(II) 1:1; for pKi of [Cu(Lx)(OH)2]^− / pKi of [Cu(Lx)(OH)] / pKi of [Cu(Lx)]^+ / pKi of [Cu(HLx)]^2+: stepwise stability constant; for pKi of [Cu(HLx)]^2+: [Cu(HLx)H]^3+ ⇄ [Cu(HLx)]^2+ + H^+
Protocol: Based on the potentiometric studies, the overall and stepwise stability constants of formed complexes were obtained and collected in Table 2; the speciation curves of in situ-formed complexes are presented in Figure 2.
as §1

[3] = cited from earlier work; for IC50: CytC assay, read-out: IC50 (SOD activity)
[4] = SOD activity, indirect cytochrome C (CytC) assay, xanthine/xanthine oxidase; type: biochemical; conditions: [CytC] = 10 μM, pH = 7.8
Protocol: To reduce uncertainty about the actual active species involved in the reaction, the catalytic investigations were made with the isolated species. The ability to catalyze superoxide dismutation was assessed using the indirect cytochrome C-based assay originally introduced by McCord and Fridovich. In this kind of test, the presence of a catalyst with SOD activity, acting as a scavenger for O2^•− and generated via a xanthine/xanthine oxidase system, prevents the electron transfer to cytochrome C (Cyt C) to form […].
Catalytic measurement assays were conducted using a Varian Cary 100 spectrophotometer with a 3 mL quartz cuvette (1 cm path length) for evaluating SOD-like activity. For the assessment of peroxidase-mimicking activity, a Varian Cary 50 instrument and identical cuvettes were utilized. To monitor the CAT-like activity, a 25 mL vial, equipped with a septum for solution injection, was used as a reactor and connected to a pressure transducer.

[5] = Cyclic voltammetry of the Cu(II)/Cu(I) couple; type: physicochemical
Protocol: To assess this behavior, the corresponding redox potentials were measured by cyclic voltammetry (CV), offering key insights into the electron-transfer properties of the complexes. The metal ion redox potential should ideally lie between the potential for oxidation (−0.16 V vs. NHE) (Equation (1)) and reduction (0.89 V vs. NHE) of superoxide radicals (Equation (2)).(1) O2∙−→O2+e^− (2) O2∙−+e^−+H^+→H2O2
The key electrochemical parameters extracted from the cyclic voltammograms are summarized in Table 3, highlighting a similar redox behavior of the complexes with both ligands. However, the nature of the anion appears to influence the properties of the mononuclear species formed in situ, compared with the isolated complexes.
Cyclic voltammetry experiments were carried out using a BAS Cell C3 EC-epsilon potentiostat equipped with a conventional three-electrode system consisting of a glassy carbon working electrode (3 mm diameter, geometric surface 7 mm^2), a platinum wire counter electrode (CE), and a silver/silver chloride reference electrode (Ag/AgCl, 3 M KCl). Voltammograms were recorded in phosphate-buffered saline (PBS; 10 mM, 150 mM NaCl, pH 7.8) containing 0.25 mM of the complex. The measurements were performed within a potential window from −600 mV to +400 mV, employing various scan rates (50 mV/s, 100 mV/s, 200 mV/s, 400 mV/s, and 800 mV/s).

[6] = CAT-like activity: O2 pressure from hydrogen peroxide dismutation; type: biochemical; set-up: Rmax: unit not given here; conditions: [catalyst] = 200 μM, [H2O2] = 20–30 mM in BBS 50 mM, pH = 7.8
Protocol: The studied catalase-like activity of the complexes was evaluated by measuring the pressure resulting from the oxygen produced during the dismutation of the hydrogen peroxide. For this analysis, a borate-based buffer system (BBS 50 mM, pH 7.8) was utilized to avoid the competitive binding of phosphate anions.
Catalytic measurement assays were conducted using a Varian Cary 100 spectrophotometer with a 3 mL quartz cuvette (1 cm path length) for evaluating SOD-like activity. For the assessment of peroxidase-mimicking activity, a Varian Cary 50 instrument and identical cuvettes were utilized. To monitor the CAT-like activity, a 25 mL vial, equipped with a septum for solution injection, was used as a reactor and connected to a pressure transducer. […]
To monitor the CAT-like activity, a 25 mL vial was used as a reactor, connected to a pressure transducer and
a septum for the injection.

[7] = UV–Vis monitoring of complex stability during H2O2 dismutation; type: physicochemical; conditions: during H2O2 dismutation, BBS 50 mM pH 7.8
From the text: The reaction progression was monitored by UV–Vis to gather insights into the stability of the complexes during H2O2 dismutation (Figures S45–S48 in Supplementary Materials). Analyzing the spectra recorded for the systems derived from HL1 and HL5, it is possible to observe changes in the absorption bands. In the case of the mononuclear species containing HL1, the alteration in the absorption band takes place over a comparatively extended period, in agreement with the occurrence of the delay period previously noted. The intensity associated with the π→π * electronic transition progressively diminishes, coinciding with a rise in molecular oxygen generation. Such a trend implies structural reconfiguration within the coordination environment of the complex, which appears necessary to initiate the catalytic event. On the other hand, the characteristic absorption feature vanishes after 4 h as a result of the formation of radical species. The UV–Vis profile of the complex Cu(HL5)(ClO4)2 (Figure S46) undergoes a faster modification.
Figure S46: UV-Vis spectra of Cu(HL5)(ClO4)2 at time 0 (red) and after 7 h (light red). The colours variation represents an increment of 5 min from t=0 to t=15 min, of 15 min from t=15 to t= 45 min and 45 min from t= 45 to t=360 min.
Conditions: [Cu(HL5)(ClO4)2]= 200 uM, [H2O2]=10mM in BBS 50mM pH=7.8. Zoom: temporal trends compared to O2 (red) and Abs (light red) on the maximum absorption at 294 nm.
Figure S47: UV-Vis spectra of Cu2(L1)2(ClO4)2 at time 0 (blue) and after 24 hours (light blue). Every change of colors represents a temporal increase of 90 minutes. Conditions: [Cu2(L1)2(ClO4)2] = 200 µM, [H2O2] = 10 mM in BBS 50 mM, pH = 7.8. Zoom: temporal trends compared to O2 (blue) and Abs (light blue) on the maximum absorption at 288 nm.
Figure S48: UV-Vis spectra of Cu2(L5)2(ClO4)2 at time 0 (dark green) and after 24 hours (light green). Every change of colours represents a temporal increase of 90 minutes. Conditions: [Cu2(L5)2(ClO4)2] = 200 µM, [H2O2] = 10 mM in BBS 50 mM, pH = 7.8. […]

[8] = [Catalyst] = 100 μM, [H2O2] = 30 mM, MOPS buffer (50 mM, pH 7.5); cited from earlier work
[9] = vs NHE, PBS 10 mM, 150 mM NaCl, pH 7.8, 0.25 mM complex

Oc1ccccc1CN(Cc1ccccn1)Cc1ccccn1 [HL1, N-(2-hydroxylbenzyl)-N,N-bis(2-pyridylmethyl)amine]
logβi, Lx^− + 2H^+ ⇌ [(HLx)H]^+ [1]: 16.29 ± 0.02
logβi, Lx^− + 3H^+ ⇌ [(HLx)H2]^2+ [1]: 21.53 ± 0.02
logβi, Lx^− + 4H^+ ⇌ [(HLx)H3]^3+ [1]: 25.24 ± 0.02
logβi, Lx^− + H^+ ⇌ HLx [1]: 9.99 ± 0.01
logKi, Lx^− + H^+ ⇌ HLx [1]: 9.99
logKi, HLx + H^+ ⇌ [(HLx)H]^+ [1]: 6.30
logKi, [(HLx)H2]^2+ + H^+ ⇌ [(HLx)H3]^3+ [1]: 3.71
logKi, [(HLx)H]^+ + H^+ ⇌ [(HLx)H2]^2+ [1]: 5.24
metal ion binding efficiency in the competition diagram ([2]; HL1:Cu(II):HL5 molar ratio 1:1:1, pH 3 to 11): significantly less efficient in metal ion binding
logβi of [Cu(HLx)H]^3+ [2]: 22.67 ± 0.06
logβi of [Cu(HLx)]^2+ [2]: 16.84 ± 0.08
logβi of [Cu(Lx)(OH)2]^− [2]: −10.42 ± 0.09
logβi of [Cu(Lx)(OH)] [2]: 0.03 ± 0.09
logβi of [Cu(Lx)]^+ [2]: 9.73 ± 0.08
pH of maximum concentration of [Cu(HLx)H]^3+ [2]: 4.5
pKi of [Cu(Lx)(OH)2]^− [2]: 10.45
pKi of [Cu(Lx)(OH)] [2]: 9.70
pKi of [Cu(Lx)]^+ [2]: 7.11
pKi of [Cu(HLx)]^2+ [2]: 5.83

O=C([O-])CCN(Cc1ccccn1)Cc1ccccn1.[Cu+2] [[Cu(BPMPA)]^+]
IC50 [3]: 1040 nM
Log (kcat) [3]: 7.09

Oc1ccccc1CN(Cc1ccccn1)Cc1ccccn1.[Cu+2].[O-][Cl+3]([O-])([O-])[O-].[O-][Cl+3]([O-])([O-])[O-] [Cu(HL1)(ClO4)2]
IC50 ([4]; CytC assay, [xanthine] = 40 μM, [xanthine oxidase] = 0.0053 U/mL, phosphate buffer 50 mM): 1410 nM
Log (kcat) ([4]; kcat(O2•−)=kCytC·[CytC]/IC50, kCytC=2.6×10^5 M^−1s^−1): 6.27 ^h
ΔE ([5]; Epc − Epa, PBS pH 7.8): −0.085 V
│ia/ic│ ([5]; peak current ratio, PBS pH 7.8): 0.61
E1/2 ([5]; vs NHE, E1/2=(Epc+Epa)/2, PBS pH 7.8): −0.135 V
Epa [5, 9]: −0.092 V
Epc [5, 9]: −0.177 V
Time (to maximum O2 production) [6]: 950 min
Induction Time ([6]; triplicate, ±10% error): 250 min
O2 generated ([6]; triplicate, ±10% error): 7.6 mmol/L
Rmax ([6]; triplicate, ±10% error): 0.25
time after which the characteristic absorption feature vanishes [7]: 4 h

(CATm1)Cu2: di-copper complex of CATm1 = peptide sequence PHYKHRLH (also: di-copper complex)
O2 generated [8]: 0.3 mmol/L
Rmax [8]: 273 µM/min
Time [8]: 3 min

O=S(=O)([O-])[O-].[Cu+2] [CuSO4]
IC50 [3]: 72200 nM
Log (kcat) [3]: ~6

COc1cccc(CN(Cc2ccccn2)Cc2ccccn2)c1O [HL5, 2-{[Bis(pyridin-2-ylmethyl)amino]methyl}-6-methoxyphenol]
logβi, Lx^− + 2H^+ ⇌ [(HLx)H]^+ [1]: 15.77 ± 0.02
logβi, Lx^− + 3H^+ ⇌ [(HLx)H2]^2+ [1]: 20.71 ± 0.02
logβi, Lx^− + 4H^+ ⇌ [(HLx)H3]^3+ [1]: 24.43 ± 0.02
logβi, Lx^− + H^+ ⇌ HLx [1]: 9.52 ± 0.01
logKi, Lx^− + H^+ ⇌ HLx [1]: 9.52
logKi, HLx + H^+ ⇌ [(HLx)H]^+ [1]: 6.25
logKi, [(HLx)H2]^2+ + H^+ ⇌ [(HLx)H3]^3+ [1]: 3.72
logKi, [(HLx)H]^+ + H^+ ⇌ [(HLx)H2]^2+ [1]: 4.94
logβi of [Cu(HLx)H]^3+ [2]: 23.43 ± 0.08
logβi of [Cu(HLx)]^2+ [2]: 18.04 ± 0.10
logβi of [Cu(Lx)(OH)2]^− [2]: −8.56 ± 0.11
logβi of [Cu(Lx)(OH)] [2]: 1.77 ± 0.11
logβi of [Cu(Lx)]^+ [2]: 11.51 ± 0.10
pH of maximum concentration of [Cu(HLx)H]^3+ [2]: 3.5
pKi of [Cu(Lx)(OH)2]^− [2]: 10.33
pKi of [Cu(Lx)(OH)] [2]: 9.74
pKi of [Cu(Lx)]^+ [2]: 6.53
pKi of [Cu(HLx)]^2+ [2]: 5.39
